According to patent US20220104481A1, “CRYOPRESERVATION OF STEM CELLS” (TiGenix, S.A.U., priority 2019, published 2022):
“Also recorded” adds a separate entry of the source.

Legend:
Format in all cases: cell-based, human
ASCs [1] = assay: MTS assay after post-thaw seeding of ASCs pretreated with compounds prior to freezing; conditions: for increase in mitochondrial activity compared to non-treated cells (MTS, 490 nm): pretreatment with 6 mM NAC
Method: ASCs from donor A were thawed by warming the vials in a 37° C. bath and diluting the freezing medium containing DMSO with fresh complete DMEM (DMEM/F-12 media—GlutaMAX™-I, Gibco, supplemented with 100 μg/mL penicillin/streptomycin and 10% FBS). Cells were centrifuged at 450 g for 6 minutes at room temperature to eliminate leftover DMSO and plated in T-175 flasks at 20.000 cells/cm^2 in complete DMEM.
A 600 mM stock of NAC (SIGMA) was prepared in Milli-Q water (Millipore). This stock was used for pre-treatment and post-treatment by adding directly 50 μL stock solution per well into 5 mL of medium, making a final concentration of 6 mM. For 2 mM, only 16.7 μL were added per well, and in the case of 12 mM, 100 μL of stock were added. DMSO was used as the vehicle for sc79 and LY294.
Following the pretreatment step, the medium was removed, the cells were washed with PBS and trypsinized using trypsin-EDTA 0.25% (ThermoFisher) for 8 minutes at 37° C. After trypsin inactivation with complete DMEM, cells were harvested and centrifuged prior to resuspension in freezing medium (FBS with 10% DMSO), and frozen into 500,000 or 1 million cells per vial and stored in liquid nitrogen for further use. Specifically, the cells were frozen at −80° C. for 24 hours in a Cool Cell® device (BioCision) and then transferred to a liquid nitrogen storage container. All experiments were performed in incubators and 37° C., 5% CO2.
[…] The CellTiter 96° Aqueous One Solution Cell Proliferation Assay is a colorimetric method for determining the number of viable cells. The CellTiter 96° Aqueous One Solution reagent contains a tetrazolium compound [3-(4,5-dimethylthiazol-2-yl)-5-(3-carboxymethoxyphenyl)-2-(4-sulfophenyl)-2H-tetrazolium, MTS] and an electron coupling reagent (phenazine ethosulfate; PES). The MTS tetrazolium compound is bioreduced by cells—presumably by NADPH or NADH produced by dehydrogenase enzymes in metabolically active cells—into a coloured formazan product that is soluble in tissue culture medium.
Briefly, 40 μL of the reagent was added to 200 μL of complete DMEM in each well and absorbance was measured after 2-3 hours at 490 nm using a […]. Each condition was measured in 6 technical repeats. The MTS assay results are presented as percentage of absorbance at 490 nm relative to the non-treated (NT) cells.

ASCs [2] = assay: ASC proliferation assay: viable cell density (trypan blue count) after thaw of pretreated ASCs; conditions: for number of viable cells: ASCs pretreated with 6 mM NAC before freezing
Method: ASCs from donor A were thawed by warming the vials in a 37° C. bath and diluting the freezing medium containing DMSO with fresh complete DMEM (DMEM/F-12 media—GlutaMAX™-I, Gibco, supplemented with 100 μg/mL penicillin/streptomycin and 10% FBS). Cells were centrifuged at 450 g for 6 minutes at room temperature to eliminate leftover DMSO and plated in T-175 flasks at 20.000 cells/cm^2 in complete DMEM. 24 hours post-thaw, the cells were treated with the suitable concentrations of the compounds indicated in the table below for 24 hours: Following the pretreatment step, the medium was removed, the cells were washed with PBS and trypsinized using trypsin-EDTA 0.25% (ThermoFisher) for 8 minutes at 37° C. After trypsin inactivation with complete DMEM, cells were harvested and centrifuged prior to resuspension in freezing medium (FBS with 10% DMSO), and frozen into 500,000 or 1 million cells per vial and stored in liquid nitrogen for further use. Specifically, the cells were frozen at −80° C. for 24 hours in a Cool Cell® device (BioCision) and then transferred to a liquid nitrogen storage container. All experiments were performed in incubators and 37° C., 5% CO2. ASCs pretreated with NAC according to the methods described in Example 2 from donor A or donor B final drug substance (FDS) were thawed by warming the vials in a 37° C. bath and quickly diluting the freezing medium containing DMSO (FBS with 10% DMSO) with fresh complete DMEM. Cells were centrifuged at 450 g for 6 minutes at room temperature to eliminate leftover DMSO, and plated in P6-well plates (Falcon #353046) in triplicates at […] in 5 mL of complete DMEM per well. Cells were washed with 1×PBS and trypsinized using trypsin-EDTA 0.25% (ThermoFisher) for 8 minutes at 37° C. After trypsin inactivation using complete DMEM, cells were harvested, centrifuged and resuspended in fresh DMEM; triplicate wells were unified as a single sample for counting purposes. Cells were counted in triplicates at 24 hours, 96 hours and 7 days after plating using an Invitrogen Countess Automated Cell Counter (Invitrogen) and adding trypan blue as a viability stain (FIG. 4A). The calculation of cell density was done using the count of viable ASC (negative for trypan blue) per surface unit (cm^2).

[3] = tested on: CD14 and CD1a on mature dendritic cells; assay: Surface expression of CD14 and CD1a by mDC co-cultured with ASCs (flow cytometry); conditions: NAC-pretreated ASCs, donors A and B (FIG. 15)
Method: After differentiation in monoculture or co-culture in vitro (the differentiation conditions, including the cytokines used, concentrations and times of differentiation, are provided in Example 7), macrophages and mDC were harvested using 0.05% trypsin-EDTA for 10 minutes at 37° C., after supernatants were collected and frozen for future cytokine and/or HPLC analysis. After mDC were counted, they were distributed into 96-well V bottom plates for staining (Nunc #249570). Cells were incubated in Blue MACS buffer with 1% human serum for 15 minutes on ice, to block Fcγ receptor-mediated nonspecific antibody binding. Subsequently, cells were stained for 20 minutes on ice with the following antibody mixes (staining in 50 μL of 1:10 antibody dilution; except for CD64, which was 1:20 dilution): Cell viability was assessed by addition of 5 μL of 7AAD per well and staining for 10 minutes on ice, and samples were acquired in a BD Fortessa cytometer. Results were analysed in FSC Express software. The effect of NAC pretreatment (according to Example 2) on thawed ASC mediated effects on the surface expression of CD14 and CD1a on mature dendritic cells was also measured by flow cytometry. mDC are CD14-CD1a+. CD1a is the antigen-presenting molecule, and mediates the presentation of antigens by mDC to other cells of the immune system to activate their response. […]

CC(=O)N[C@@H](CS)C(=O)O [NAC, N-Acetylcysteine]
cell number by MTS assay versus non-treated (ASCs [1]; 6 mM NAC pretreatment for 24 hours, 24 hours post-seeding after thaw (FIG. 2)): increased cell numbers | increase of mitochondrial activity after NAC pretreatment (MTS) (ASCs [1]; 6 mM NAC pretreatment, FIGS. 4B & C (24 and 96 hours post-thaw)): 15-20% | increase in mitochondrial activity compared to non-treated cells (MTS, 490 nm) (ASCs [1]; 24 hours culture post-thaw (FIG. 4B)): greater than 35% | increase in mitochondrial activity compared to non-treated cells (MTS, 490 nm) (ASCs [1]; 96 hours culture post-thaw (FIG. 4C)): greater than 15% | number of cells counted versus non-treated control (ASCs [2]; 6 mM NAC pretreatment, 24 hours and 4 days post-thaw): increased the number of cells counted at 24 hours and 4 days | cell number by cell density versus non-treated (ASCs [2]; 6 mM NAC pretreatment, 24 hours post-seeding after thaw (FIG. 3)): increased cell numbers | cell numbers versus non-treated, two donors (ASCs [2]; 6 mM NAC pretreatment, donor A and donor B, from 24 hours post-seeding, maintained for a week (FIG. 5)): increase in cell numbers | post-thaw recovery (viable adhered cell number over seeding density) (ASCs [2]; ASCs pretreated with 6 mM NAC (FIG. 4A), non-treated cells not recovered at 1 day): recovered after 1 day of post-thaw culture | number of viable cells (ASCs [2]; 1 day of culture post-thaw (FIG. 4A)): ~5,000 cells/cm^2 | number of viable cells (ASCs [2]; 4 days of culture post-thaw (FIG. 4A)): ~12,500 cells/cm^2 | improvement of growth rate relative to non-treated cells (ASCs [2]; ASCs pretreated with 6 mM NAC, between days 1 and 4 of post-thaw culture): about 1.25 fold | growth rate (ASCs [2]; ASCs pretreated with 6 mM NAC, between days 1 and 4 of post-thaw culture (FIG. 4A)): approximately 2500 cells/cm^2/day | ASC-induced formation of CD14+CD1a- regulatory mDC population [3]: does not alter the ability of thawed ASCs to induce the formation of this mDC regulatory population; also recorded: did not modify this effect
